13 compounds from patent publication US6706740B2, “Fungicidal heterocyclic aromatic amides and their compositions, methods of use and preparation” (Dow AgroSciences LLC, priority 1999, dated 2004) can be followed below.

Test [1] deals with Erysiphe graminis—ERYSGT. The test is described as follows: Powdery Mildew of Wheat, in vivo whole plant, 24 Hour Protectant. The conditions noted are these: for pest or weed control at 100 ppm: Erysiphe, read-out: ERYSGT in vivo 1 Day Protectant.
Test [2] concerns Phytophthora infestans—PHYTIN. The experiment in a line: whole plant or invertebrate. Type of test: in vivo. The conditions noted are these: Phytophthora, in Solanum lycopersicum, 24 h, read-out: PHYTIN in vivo 1 Day Protectant.
Test [3] relates to Ustilago maydis (USTIMA). The test is described as follows: microbe, parasite or virus in culture. It counts as cell-based. The conditions noted are these: for inhibition at 25 ppm: Mycosarcoma maydis, read-out: USTIMA in vitro Growth Inhibition.
Test [4] deals with Rhizoctonia solani (RHIZSO). The experiment in a line: microbe, parasite or virus in culture. Type of test: cell-based. As to conditions: for inhibition at 25 ppm: Rhizoctonia solani, read-out: RHIZSO in vitro Growth Inhibition.
The test system of test [5] is Leptosphaeria nodorum—LEPTNO. The experiment in a line: Glume Blotch of Wheat, in vivo whole plant, 24 Hour Protectant. The conditions noted are these: 100 ppm spray, wheat, 24 hour protectant; for pest or weed control at 100 ppm: Leptosphaeria, read-out: LEPTNO in vivo 1 Day Protectant.
Test [6] concerns Phytophthora infestans (PHYTIN). The experiment in a line: microbe, parasite or virus in culture. As to conditions: for inhibition at 25 ppm: Phytophthora infestans, read-out: PHYTIN in vitro Growth Inhibition. It counts as cell-based.
Test [7] deals with Mycosphaerella graminicola (Septoria tritici—SEPTTR). The test is described as follows: In vitro fungal growth inhibition, Mycosphaerella graminicola (SEPTTR). It counts as cell-based. The conditions noted are these: for inhibition at 25 ppm: Zymoseptoria tritici, read-out: SEPTTR in vitro Growth Inhibition.
Test [8] relates to Stagonospora nodorum (Leptosphaeria nodorum—LEPTNO). The test is described as follows: In vitro fungal growth inhibition, Stagonospora nodorum (LEPTNO). Type of test: cell-based. The conditions noted are these: for inhibition at 25 ppm: Leptosphaeria, read-out: LEPTNO in vitro Growth Inhibition.
Test [9] relates to Puccinia recondita—PUCCRT. The test is described as follows: Brown Rust of Wheat, in vivo whole plant, 24 Hour Protectant. As to conditions: for pest or weed control at 100 ppm: Puccinia, read-out: PUCCRT in vivo 1 Day Protectant.
Test [10] deals with Magnaporthe grisea (Pyricularia oryzae—PYRIOR). The experiment in a line: microbe, parasite or virus in culture. It counts as cell-based. The conditions noted are these: for inhibition at 25 ppm: Pyricularia oryzae, read-out: PYRIOR in vitro Growth Inhibition.
The test system of test [11] is Septoria tritici—SEPTTR. The experiment in a line: Leaf Blotch of Wheat, in vivo whole plant, 24 Hour Protectant. The conditions noted are these: Zymoseptoria tritici, 24 h, wheat plants sprayed at 100 ppm, inoculated after 24 hours; control of fungal infection vs untreated plants; read-out: SEPTTR in vivo 1 Day Protectant.
Where [12] appears, read: 100 ppm spray, wheat, 24 hour protectant, % control of fungal infection vs untreated plants.
The mark [13] stands for this setting: 100 ppm spray, 24 hour protectant, wheat, control of fungal infection vs untreated plants.
The mark [14] stands for this setting: control of fungal infection vs untreated plants.
Setting [15] is: wheat plants sprayed at 100 ppm, inoculated after 24 hours, control of fungal infection vs untreated plants.

Structures are written as SMILES. Read-outs that look alike come from different tables or passages of the source. Where only a bound is given, the exact number is not on record here.

One may read the inhibition as how much of the control response was suppressed. With `COc1ccnc(C(=O)N[C@H]2COC(=O)[C@H](Cc3ccccc3)[C@@H](OC(=O)C(C)C)[C@H](C)OC2=O)c1OC(=O)OCc1ccccc1` [Compound 695], the pest or weed control at 100 ppm in test [1] (setting [12]) and in test [2] was less than 25% each time. Moreover, the inhibition at 25 ppm is less than 80% in test [3]; less than 80% in test [4]; less than 80% in test [6]; less than 80% in test [7] (25 ppm in growth medium); less than 80% in test [8] (25 ppm in growth medium); greater than 80% in test [10]. Besides, the “LEPTNO in vivo 1 Day Protectant” value in test [5] (% control of fungal infection vs untreated plants) is “+ +”. In [9] (setting [12]), the “PUCCRT in vivo 1 Day Protectant” value is listed as “+ +”.

As for `COc1ccnc(C(=O)N[C@H]2CC3CC2C[C@@H]3COCc2cccc(C(F)(F)F)c2)c1O` (some centres unmarked) [Compound 296], the pest or weed control at 100 ppm in [1] (setting [13]) is less than 25%; in test [2], less than 25%; in test [5] (setting [14]), 25 to 74%; in test [9] (setting [13]), less than 25%. Also, the inhibition at 25 ppm was less than 80% in [3]; greater than 80% in [4]; less than 80% in test [6]; less than 80% in test [7] (25 ppm in growth medium); greater than 80% in test [8] (25 ppm in growth medium); greater than 80% in test [10].

In the case of `COc1ccnc(C(=O)N[C@H]2COC(=O)[C@H](Cc3ccccc3)[C@@H](OC(=O)C(C)C)[C@H](C)OC2=O)c1OC(=O)c1ccc(Cl)nc1` [Compound 669], the pest or weed control at 100 ppm in [1] (setting [12]) and in test [2] was less than 25% in each case. Moreover, the inhibition at 25 ppm in [3] was less than 80%; in [4] it was less than 80%; in [6], less than 80%; in test [7] (25 ppm in growth medium) it was less than 80%; in test [8] (25 ppm in growth medium), greater than 80%; in [10], less than 80%.

Regarding `CON=C(c1ccc(NC(=O)c2nccc(OC)c2OC(C)=O)cc1)c1cccc(C(F)(F)F)c1` [Compound 707], the “ERYSGT in vivo 1 Day Protectant” value in test [1] is reported as “+ +”. Further, the “USTIMA in vitro Growth Inhibition” value in test [3] is recorded as “− (key: +: at least 80% growth inhibition; −: less than 80% growth inhibition)”. For the same compound, in test [4], the “RHIZSO in vitro Growth Inhibition” value is “− (key: +: at least 80% growth inhibition; −: less than 80% growth inhibition)”. Besides, in [6], the “PHYTIN in vitro Growth Inhibition” value was “− (key: +: at least 80% growth inhibition; −: less than 80% growth inhibition)”. Also, in test [7], the “SEPTTR in vitro Growth Inhibition” value is listed as “− (key: +: at least 80% growth inhibition; −: less than 80% growth inhibition)”. Also, in test [8], the “LEPTNO in vitro Growth Inhibition” value is listed as “− (key: +: at least 80% growth inhibition; −: less than 80% growth inhibition)”. In test [10], the “PYRIOR in vitro Growth Inhibition” value was “+ (key: +: at least 80% growth inhibition; −: less than 80% growth inhibition)”.

As for `COc1ccnc(C(=O)NC2CCC[C@H]3CC(CCC=C(C)C)=CC[C@@H]23)c1O` (some centres unmarked) [Compound 286], the pest or weed control at 100 ppm in test [1] (setting [13]) was less than 25%; in test [2], less than 25%; in test [5] (setting [14]), 25 to 74%; in [9] (setting [13]) it was less than 25%. The inhibition at 25 ppm in [3] was less than 80%; in [4], greater than 80%; in test [6], less than 80%; in [7] (25 ppm in growth medium), less than 80%; in test [8] (25 ppm in growth medium), greater than 80%; in [10], less than 80%.

On to `COc1ccnc(C(=O)N[C@@H]2CC3CC2[C@@H](c2ccccc2)[C@@H]3C(=O)OC(C)C)c1O` (some centres unmarked) [Compound 300], for which the pest or weed control at 100 ppm in [1] (setting [13]) was less than 25%; in test [2], less than 25%; in [5] (setting [14]), 25 to 74%; in test [9] (setting [13]) it was less than 25%. In addition, the inhibition at 25 ppm is less than 80% in test [3]; greater than 80% in [4]; less than 80% in [6]; less than 80% in [7] (25 ppm in growth medium); greater than 80% in [8] (25 ppm in growth medium); less than 80% in test [10].

For `COc1ccnc(C(=O)NC2CCC[C@H]3[C@H]4CC[C@H](C4)[C@@H]23)c1O` (some centres unmarked) [Compound 291], the pest or weed control at 100 ppm in test [1] (setting [13]) was less than 25%; in test [2] it was less than 25%; in [5] (setting [14]), 25 to 74%; in [9] (setting [13]), less than 25%. For the same compound, the inhibition at 25 ppm is less than 80% in test [3]; greater than 80% in test [4]; less than 80% in [6]; less than 80% in test [7] (25 ppm in growth medium); greater than 80% in test [8] (25 ppm in growth medium); less than 80% in test [10].

As to `COc1ccnc(C(=O)NCC(C)(C)Sc2ncc(C(F)(F)F)cc2Cl)c1O` [Compound 244], the pest or weed control at 100 ppm is less than 25% in test [1] (setting [13]), less than 25% in [2], 25 to 74% in [5] (setting [14]) and less than 25% in [9] (setting [13]). In addition, the inhibition at 25 ppm was less than 80% in test [3]; less than 80% in test [4]; less than 80% in [6]; greater than 80% in test [7] (25 ppm in growth medium); greater than 80% in test [8] (25 ppm in growth medium); greater than 80% in test [10].

For the compound `COc1ccnc(C(=O)N[C@H]2CC[C@H]3C4CCC(CC4)[C@H]3C2=O)c1O` [Compound 292], the pest or weed control at 100 ppm was less than 25% in test [1] (setting [13]), less than 25% in [2] and 25 to 74% in test [9] (setting [13]). Moreover, the inhibition at 25 ppm was less than 80% in test [3]; less than 80% in [4]; less than 80% in test [6]; less than 80% in test [7] (25 ppm in growth medium); greater than 80% in test [8] (25 ppm in growth medium); less than 80% in test [10]. Moreover, the “LEPTNO in vivo 1 Day Protectant” value in [5] (setting [14]) is reported as “+ +”.

Take `COc1ccnc(C(=O)N[C@H]2CO[C@@H](C(C)Cc3ccc(C(C)(C)C)cc3)OC2)c1OC(C)=O` (some centres unmarked) [Compound 593]: the pest or weed control at 100 ppm is less than 25% in test [1] (setting [15]), less than 25% in test [2] and 25 to 74% in test [11]. The inhibition at 25 ppm in [3], in test [4], in [6], in [7] (25 ppm in the growth medium), in test [8] (25 ppm in the growth medium) and in test [10] was less than 80% in each case. The “PUCCRT in vivo 1 Day Protectant” value in test [9] (setting [15]) is “+ +”.

Take `COc1ccnc(C(=O)N[C@@H]2CC3CC2[C@@H](C(=O)OCCc2ccccc2)[C@H]3C(=O)OCC(C)C)c1O` (some centres unmarked) [Compound 301]: the pest or weed control at 100 ppm in [1] (setting [13]) is less than 25%; in test [2], less than 25%; in test [5] (setting [14]), 25 to 74%; in [9] (setting [13]), 25 to 74%. Besides, the inhibition at 25 ppm is less than 80% in [3]; greater than 80% in [4]; less than 80% in test [6]; less than 80% in test [7] (25 ppm in growth medium); greater than 80% in [8] (25 ppm in growth medium); greater than 80% in test [10].

Consider `COCCC(=O)Oc1c(OC)ccnc1C(=O)Nc1ccc(C(=NOC)c2cccc(C(F)(F)F)c2)cc1` [Compound 708], for which, in test [1], the “ERYSGT in vivo 1 Day Protectant” value is reported as “+ +”. In addition, the “USTIMA in vitro Growth Inhibition” value in [3] is given as “− (key: +: at least 80% growth inhibition; −: less than 80% growth inhibition)”. Besides, in test [4], the “RHIZSO in vitro Growth Inhibition” value is “− (key: +: at least 80% growth inhibition; −: less than 80% growth inhibition)”. The “PHYTIN in vitro Growth Inhibition” value in test [6] is “− (key: +: at least 80% growth inhibition; −: less than 80% growth inhibition)”. In [7], the “SEPTTR in vitro Growth Inhibition” value is given as “+ (key: +: at least 80% growth inhibition; −: less than 80% growth inhibition)”. Also, the “LEPTNO in vitro Growth Inhibition” value in [8] is recorded as “+ (key: +: at least 80% growth inhibition; −: less than 80% growth inhibition)”. In [10], the “PYRIOR in vitro Growth Inhibition” value is given as “− (key: +: at least 80% growth inhibition; −: less than 80% growth inhibition)”.

On to `COc1ccnc(C(=O)N[C@H]2CC3CC2[C@H](COCc2cccc(C(F)(F)F)c2)C3)c1O` (some centres unmarked) [Compound 294], for which the pest or weed control at 100 ppm in [1] (setting [13]), in test [2] and in test [9] (setting [13]) was less than 25% each time. Moreover, the inhibition at 25 ppm in test [3] is less than 80%; in test [4], greater than 80%; in test [6], less than 80%; in [7] (25 ppm in growth medium) it was greater than 80%; in test [8] (25 ppm in growth medium), greater than 80%; in test [10], greater than 80%. In test [5] (setting [14]), the “LEPTNO in vivo 1 Day Protectant” value is on record as “+ +”.
